Measured values: patent publication US9365533B2, “Coumarin derivative” (NIPPON ZOKI PHARMACEUTICAL CO., LTD., priority 2012, dated 2016)

Tests used:
HFLS-OA cells = assay: Suppressive action to TNF-α-induced proliferation of synovial cells (HFLS-OA), BrdU ELISA; type: cell-based; details: Synovial cell, 120 h; 200 μmol/L test substance; human recombinant TNF-α 10 ng/mL; 5 days; BrdU incorporation increase by TNF-α = 100%; read-out: Synovial Cell Proliferation Rate (%)
Description: Evaluation of Suppressive Action to Cell Proliferation of Synovial Cells (HFLS-OA) Derived from Tissues of Human Osteoarthritis
(1) Incubation of HFLS-OA Cells
HFLS-OA cells were sown onto a 96-well plate so as to make them 10^4 cells/well/100 μL in a D-MEM containing 2 vol % of fetal bovine serum (FBS) and incubated for 24 hours. A test substance (200 μmol/L) and human recombinant TNF-α (10 ng/mL) were added thereto followed by incubating for 5 days.
(2) Measurement of Action to HFLS-OA Cell Proliferation
A kit [Cell Proliferation ELISA, BrdU (colorimetric) (Roche Diagnostics)] was used and measurement was conducted according to the protocol attached to the kit. HFLS-OA cells were incubated for 3 days and 10 μL of 5-bromo-2′-deoxyuridine (BrdU) dissolved in a phosphate buffered saline (PBS) (100 μmol/L, pH 7.4) was added to each well followed by incubating for 48 hours more. After the culture supernatant was removed from each well, 200 μL/well of an immobilization/denaturation solution was added thereto and the mixture was allowed to stand for 30 minutes whereby immobilization of the cells and denaturation of DNA were conducted. After the immobilization/denaturation solution was completely removed, 100 μL of a peroxidase-labeled anti-BrdU antibody solution was added thereto and the mixture was made to react at room temperature for 90 minutes. After washing with PBS, 100 μL of a substrate liquid (tetramethylbenzidine) was added to each well and the absorbance was measured. A cell proliferation rate upon addition of each test substance was calculated where an increase in incorporation of BrdU upon addition of TNF-α was defined as 100% of cell proliferation rate.

[1] = system: cartilage pieces of bovine metacarpophalangeal joint; assay: Suppressive action to cartilage destruction: release of sGAG induced by IL-1α from cartilage pieces; type: cell-based; details: Bos taurus, 96 h; 25 μmol/L test substance, 2 h pretreatment; human recombinant IL-1α 3 ng/mL; 4 days at 37° C.; read-out: sGAG Releasing Suppressive Rate (%)
Description: Evaluation of Suppressive Action to Cartilage Destruction [Release of sGAG Induced by Interleukin-1α (IL-1α)]
(1) Incubation of Cartilage Pieces
Each four cartilage pieces of bovine metacarpophalangeal joint were placed in each well of a 48-well plate and pretreated for 2 hours with a basal medium [D-MEM (Dulbecco's Modified Eagle Medium) containing 2 mmol/L of glutamine, 25 mmol/L of Hepes, 100 μg/mL of streptomycin, 100 IU/mL of penicillin and 5.6 μg/mL of amphotericin B] containing 25 μmol/L of a test substance. Human recombinant IL-1α (3 ng/mL) was added thereto followed by incubating at 37° C. for 4 days in a CO2 incubator set at 5 vol % of CO2. Culture supernatant and cartilage pieces were recovered and stored by freezing until the measurement for each of them.
(2) Measurement of the Amount of sGAG and Calculation of the Suppressive Rate for the Release of sGAG
The recovered cartilage pieces were treated with a papain solution [containing 1 mg/mL of papain, 100 mmol/L of sodium phosphate (pH 6.5), 5 mmol/L of L-cysteine and 5 mmol/L of disodium ethylenediaminetetraacetate (EDTA)] at 65° C. for about 16 hours to solubilize. Amount of sGAG in the resulting extract was measured using an sGAG Alcian Blue Binding Kit (Wieslab AB) which is a quantitative kit to which a Alcian blue staining protocol is applied. sGAG in the culture supernatant after the incubation was measured without subjecting to a papain treatment. Each releasing rate of sGAG was determined by the following formula to calculate the suppressive rate for the release of sGAG. Releasing rate (%) of sGAG={(Total sGAG amount in the culture supernatant)/[(Total sGAG amount in the culture supernatant)+(Total sGAG amount in the cartilage pieces)]}×100 Suppressive rate (%) for release of sGAG={[Releasing rate of sGAG (IL-1α stimulation)−Releasing rate of sGAG (Test substance)]/[Releasing rate of sGAG (IL-1α stimulation)−Releasing rate of sGAG (Non-stimulation)]}×100

SMILES | activity at 200 µM (HFLS-OA cells) | inhibition at 25 µM [1]
O=c1oc2c(OS(=O)(=O)c3cccc([N+](=O)[O-])c3)cccc2cc1NS(=O)(=O)c1cccc(Br)c1 [Compound 54, 3-[(3-Bromophenyl)sulfonylamino]-2-oxochromen-8-yl 3-nitrobenzenesulfonate] | -44.4% | 136%
O=c1oc2c(OS(=O)(=O)c3cccc([N+](=O)[O-])c3)cccc2cc1NS(=O)(=O)c1ccc(-c2ccccc2)cc1 [Compound 55, 2-Oxo-3-[(4-phenylphenyl)sulfonylamino]chromen-8-yl 3-nitrobenzenesulfonate] | -32.2% | 117%
O=c1oc2c(OS(=O)(=O)c3cccc(C(F)(F)F)c3)cccc2cc1NS(=O)(=O)c1cccc(Br)c1 [Compound 56, 3-[(3-Bromophenyl)sulfonylamino]-2-oxochromen-8-yl 3-(trifluoromethyl)benzenesulfonate] | -44.4% | 133%
O=c1oc2c(OS(=O)(=O)c3ccc(C(F)(F)F)cc3)cccc2cc1NS(=O)(=O)c1cccc(C(F)(F)F)c1 [Compound 57, 2-Oxo-3-[[3-(trifluoromethyl)phenyl]sulfonylamino]-chromen-8-yl 4-(trifluoromethyl)benzenesulfonate] | -50% | 140%
O=c1oc2c(OS(=O)(=O)c3ccc(C(F)(F)F)cc3)cccc2cc1NS(=O)(=O)c1cccc(Br)c1 [Compound 58, 3-[(3-Bromophenyl)sulfonylamino]-2-oxochromen-8-yl 4-(trifluoromethyl)benzenesulfonate] | -42.8% | 129%
O=c1oc2c(OS(=O)(=O)c3cccc(Br)c3)cccc2cc1NS(=O)(=O)c1cccc([N+](=O)[O-])c1 [Compound 59, 3-[(3-Nitrophenyl)sulfonylamino]-2-oxochromen-8-yl 3-bromobenzenesulfonate] | -32.8% | 123%
O=c1oc2c(OS(=O)(=O)c3cccc(Br)c3)cccc2cc1NS(=O)(=O)c1cccc(C(F)(F)F)c1 [Compound 60, 2-Oxo-3-[[3-(trifluoromethyl)phenyl]sulfonylamino]-chromen-8-yl 3-bromobenzenesulfonate] | -44.4% | 138%
O=c1oc2c(OS(=O)(=O)c3cccc(Br)c3)cccc2cc1NS(=O)(=O)c1ccc(C(F)(F)F)cc1 [Compound 61, 2-Oxo-3-[[4-(trifluoromethyl)phenyl]sulfonylamino]-chromen-8-yl 3-bromobenzenesulfonate] | -40.6% | 140%
O=c1oc2c(OS(=O)(=O)c3ccc(-c4ccccc4)cc3)cccc2cc1NS(=O)(=O)c1cccc([N+](=O)[O-])c1 [Compound 62, 3-[(3-Nitrophenyl)sulfonylamino]-2-oxochromen-8-yl 4-phenylbenzenesulfonate] | -49.2% | 140%
O=c1oc2c(OS(=O)(=O)c3ccc(-c4ccccc4)cc3)cccc2cc1NS(=O)(=O)c1cccc(C(F)(F)F)c1 [Compound 63, 2-Oxo-3-[[3-(trifluoromethyl)phenyl]sulfonylamino]-chromen-8-yl 4-phenylbenzenesulfonate] | -47.9% | 137%
O=c1oc2c(OS(=O)(=O)c3ccc(-c4ccccc4)cc3)cccc2cc1NS(=O)(=O)c1ccc(C(F)(F)F)cc1 [Compound 64, 2-Oxo-3-[[4-(trifluoromethyl)phenyl]sulfonylamino]-chromen-8-yl 4-phenylbenzenesulfonate] | -45.9% | 136%
O=c1oc2c(OS(=O)(=O)c3ccc(-c4ccccc4)cc3)cccc2cc1NS(=O)(=O)c1cccc(Br)c1 [Compound 65, 3-[(3-Bromophenyl)sulfonylamino]-2-oxochromen-8-yl 4-phenylbenzenesulfonate] | -45.9% | 115%
O=c1oc2c(OS(=O)(=O)c3ccc(-c4ccccc4)cc3)cccc2cc1NS(=O)(=O)c1ccc(-c2ccccc2)cc1 [Compound 66, 2-Oxo-3-[(4-phenylphenyl]sulfonylamino]chromen-8-yl 4-phenylbenzenesulfonate] | -37.9% | 38%
O=c1oc2c(OS(=O)(=O)c3cccc([N+](=O)[O-])c3)cccc2cc1NS(=O)(=O)c1ccc(C(F)(F)F)cc1 [Compound 67, 2-Oxo-3-[[4-(trifluoromethyl)phenyl]sulfonylamino]-chromen-8-yl 3-nitrobenzenesulfonate] | -38.9% | 115%
O=c1oc2c(OS(=O)(=O)c3cccc(C(F)(F)F)c3)cccc2cc1NS(=O)(=O)c1ccc(C(F)(F)F)cc1 [Compound 68, 2-Oxo-3-[[4-(trifluoromethyl)phenyl]sulfonylamino]-chromen-8-yl 3-(trifluoromethyl)benzenesulfonate] | -42.8% | 124%
O=c1oc2c(OS(=O)(=O)c3ccc(C(F)(F)F)cc3)cccc2cc1NS(=O)(=O)c1cccc([N+](=O)[O-])c1 [Compound 69, 3-[(3-Nitrophenyl)sulfonylamino]-2-oxochromen-8-yl 4-(trifluoromethyl)benzenesulfonate] | -40.6% | 126%
O=c1oc2c(OS(=O)(=O)c3ccc(C(F)(F)F)cc3)cccc2cc1NS(=O)(=O)c1ccc(-c2ccccc2)cc1 [Compound 70, 2-Oxo-3-[(4-phenylphenyl)sulfonylamino]chromen-8-yl 4-(trifluoromethyl)benzenesulfonate] | -39% | 103%
